The values that follow come from US9802901B2, “Antibacterial 2H-indazole derivatives” (priority 2013, dated 2017).

Values after ≈ are worked out from the molar mass of the structure shown. Like-named read-outs stand apart in the source and are kept apart here.

For one assay, the system named is wild-type E. coli A-1261. Description: MIC against wild-type E. coli A-1261 with or without alkaline phosphatase or esterase. To be noted: Escherichia coli. The assay is classed as cell-based. The procedure: Minimal Inhibitory Concentrations (MICs; mg/L) were determined in cation-adjusted Mueller-Hinton Broth by a microdilution method following the description given in “Methods for Dilution Antimicrobial Susceptibility Tests for Bacteria that Grow Aerobically”, Approved standard, 7th ed., Clinical and Laboratory Standards Institute (CLSI) Document M7-A7, Wayne, Pa., USA (2006).
The compounds of Examples 62 and 63 were tested against wild-type E. coli A-1261 in the absence of alkaline phosphatase or esterase, in the presence of an alkaline phosphatase and in the presence of an esterase. The corresponding antibacterial test results are given in Table 2 hereafter (MICs in mg/L).

Assay [1] deals with Acinetobacter baumannii T6474. The experiment in a line: Bacterial growth minimal inhibitory concentration (broth microdilution, CLSI M7-A7). The assay is classed as cell-based. The note with it: cation-adjusted Mueller-Hinton Broth, microdilution, multiply-resistant (quinolone-resistant) strain; for MIC: Acinetobacter baumannii, T6474, read-out: MIC for A. Baumannii T6474. An outline of the steps: (§1)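 Broth microdilution in cation-adjusted Mueller-Hinton Broth per CLSI M7-A7; MICs reported in mg/L. K. pneumoniae A-651 and A. baumannii T6474 are multiply resistant, quinolone-resistant strains; E. coli ATCC25922 and P. aeruginosa ATCC27853 are quinolone-sensitive.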

For the next assay, the system named is E. coli ATCC25922. Described as above. Format: cell-based, Escherichia coli. The note with it: cation-adjusted Mueller-Hinton Broth, microdilution, quinolone-sensitive strain; for MIC: Escherichia coli, ATCC25922, read-out: MIC for E. coli ATCC25922. The method, boiled down:
as §1

The next assay has as its system K. pneumoniae A-651. The assay is described as above. Format: cell-based, Klebsiella pneumoniae. The note with it: cation-adjusted Mueller-Hinton Broth, microdilution, multiply-resistant (quinolone-resistant) strain; for MIC: Klebsiella pneumoniae, A651, read-out: MIC for K. Pneumoniae A-651. The method, boiled down:
as §1

The test system of another assay is P. aeruginosa ATCC27853. The description is as above. The note with it: cation-adjusted Mueller-Hinton Broth, microdilution, quinolone-sensitive strain; for MIC: Pseudomonas aeruginosa, ATCC27853, read-out: MIC for P. aeruginosa ATCC27853. Format: cell-based, Pseudomonas aeruginosa. An outline of the steps:
as §1

Setting [2] is: alkaline phosphatase 2 i.U./mL, read-out: MIC for E. coli A-1261 In the presence of an alkaline phosphatase (2 i.U./mL).
The mark [3] stands for this setting: esterase 10 i.U./mL, read-out: MIC for E. coli A-1261 In the presence of an esterase (10 i.U./mL).
Where [4] appears, read: no alkaline phosphatase or esterase, read-out: MIC for E. coli A-1261 In the absence of alkaline phosphatase or esterase.

Take `C[C@@](CCn1cc2cc(C#Cc3ccc(C4(COP(=O)(O)O)CC4)cc3)ccc2n1)(C(=O)NO)S(C)(=O)=O` [Example 62, (R)-(1-(4-((2-(4-(hydroxyamino)-3-methyl-3-(methylsulfonyl)-4-oxobutyl)-2H-indazol-5-yl)ethynyl)phenyl)cyclopropyl)methyl dihydrogen phosphate]: the MIC was 1 µg/mL in the assay on wild-type E. coli A-1261 (setting [2]), over 16 µg/mL with wild-type E. coli A-1261 (setting [3]) and over 16 µg/mL in the assay with wild-type E. coli A-1261 (setting [4]).

With `CN(C)CC(=O)OCC1(c2ccc(C#Cc3ccc4nn(CC[C@](C)(C(=O)NO)S(C)(=O)=O)cc4c3)cc2)CC1.Cl` [Example 63, (R)-(1-(4-((2-(4-(hydroxyamino)-3-methyl-3-(methylsulfonyl)-4-oxobutyl)-2H-indazol-5-yl)ethynyl)phenyl)cyclopropyl)methyl dimethylglycinate hydrochloride], the MIC was found to be 8 µg/mL in assay [1]; 2 µg/mL with E. coli ATCC25922; 4 µg/mL in the assay on K. pneumoniae A-651; 0.5 µg/mL in the assay with wild-type E. coli A-1261 (setting [2]); 0.063 µg/mL in the assay on wild-type E. coli A-1261 (setting [3]); 0.25 µg/mL with wild-type E. coli A-1261 (setting [4]). Further, in the assay with P. aeruginosa ATCC27853, the MIC was determined as 8 µg/mL.

Consider `CN(C)CC#CC#Cc1ccc2nn(CC[C@](C)(C(=O)NO)S(C)(=O)=O)cc2c1` [Example 75, (R)-4-(5-(5-(dimethylamino)penta-1,3-diyn-1-yl)-2H-indazol-2-yl)-N-hydroxy-2-methyl-2-(methylsulfonyl)butanamide], for which the MIC in assay [1] was over 32 µg/mL; in the assay with E. coli ATCC25922, 0.125 µg/mL (≈ 0.3 µM); with K. pneumoniae A-651, 0.15 µg/mL (≈ 0.36 µM); in the assay on P. aeruginosa ATCC27853, 0.5 µg/mL (≈ 1.2 µM).

For `C[C@@](CCn1cc2cc(C#CC#CC3CCNCC3)ccc2n1)(C(=O)NO)S(C)(=O)=O` [Example 76, (R)—N-hydroxy-2-methyl-2-(methylsulfonyl)-4-(5-(piperidin-4-ylbuta-1,3-diyn-1-yl)-2H-indazol-2-yl)butanamide], the MIC is over 32 µg/mL in assay [1], 8 µg/mL (≈ 18.1 µM) in the assay on E. coli ATCC25922, 32 µg/mL (≈ 72.3 µM) in the assay with K. pneumoniae A-651 and 2 µg/mL (≈ 4.52 µM) in the assay on P. aeruginosa ATCC27853.

With `C[C@@](CCn1cc2cc(C#CC#C[C@H]3C[C@]3(F)CO)ccc2n1)(C(=O)NO)S(C)(=O)=O` [Example 77, (R)-4-(5-(((1R,2R)-2-fluoro-2-(hydroxymethyl)cyclopropyl)buta-1,3-diyn-1-yl)-2H-indazol-2-yl)-N-hydroxy-2-methyl-2-(methylsulfonyl)butanamide], the MIC in assay [1] was 4 µg/mL (≈ 8.94 µM); in the assay on E. coli ATCC25922 it was 0.125 µg/mL (≈ 0.279 µM); in the assay on K. pneumoniae A-651, 0.25 µg/mL (≈ 0.559 µM); in the assay on P. aeruginosa ATCC27853, 0.25 µg/mL (≈ 0.559 µM).

Regarding `C[C@@](CCn1cc2cc(C#CC#CC3CCN(C(=O)CO)CC3)ccc2n1)(C(=O)NO)S(C)(=O)=O` [Example 78], the “MIC for A. Baumannii T6474” value in assay [1] came out at 4 µg/mL. In addition, in the assay on E. coli ATCC25922, the “MIC for E. coli ATCC25922” value is 0.5 µg/mL. The “MIC for K. Pneumoniae A-651” value against K. pneumoniae A-651 was found to be 2 µg/mL. Moreover, the “MIC for P. aeruginosa ATCC27853” value in the assay with P. aeruginosa ATCC27853 worked out at 1 µg/mL.

For the compound `C[C@@](CCn1cc2cc(C#Cc3ccc(C4(N)CC4)cc3)ccc2n1)(C(=O)NO)S(C)(=O)=O.O=CO` [Example 79, (R)-4-(5-((4-(1-aminocyclopropyl)phenyl)ethynyl)-2H-indazol-2-yl)-N-hydroxy-2-methyl-2-(methylsulfonyl)butanamide formate], the MIC in assay [1] worked out at 2 µg/mL; in the assay with E. coli ATCC25922 it was 0.125 µg/mL; in the assay with K. pneumoniae A-651 it was 0.25 µg/mL; in the assay on P. aeruginosa ATCC27853, 1 µg/mL.

Take `C[C@@](CCn1cc2cc(C#CC#CCC3(O)COC3)ccc2n1)(C(=O)NO)S(C)(=O)=O` [Example 80, (R)—N-hydroxy-4-(5-(5-(3-hydroxyoxetan-3-yl)penta-1,3-diyn-1-yl)-2H-indazol-2-yl)-2-methyl-2-(methylsulfonyl)butanamide]: the MIC is 32 µg/mL (≈ 71.8 µM) in assay [1], 0.5 µg/mL (≈ 1.12 µM) in the assay with E. coli ATCC25922, 1 µg/mL (≈ 2.24 µM) in the assay with K. pneumoniae A-651 and 1 µg/mL (≈ 2.24 µM) in the assay on P. aeruginosa ATCC27853.

Take `C[C@@](CCn1cc2cc(C#CC#CC3CN(C(=O)CO)C3)ccc2n1)(C(=O)NO)S(C)(=O)=O` [Example 81, (R)—N-hydroxy-4-(5-((1-(2-hydroxyacetyl)azetidin-3-yl)buta-1,3-diyn-1-yl)-2H-indazol-2-yl)-2-methyl-2-(methylsulfonyl)butanamide]: the MIC in assay [1] is 4 µg/mL (≈ 8.47 µM); in the assay on E. coli ATCC25922, 0.5 µg/mL (≈ 1.06 µM); in the assay on K. pneumoniae A-651, 1 µg/mL (≈ 2.12 µM); with P. aeruginosa ATCC27853, 1 µg/mL (≈ 2.12 µM).

Take `CC(C)(N)CC#CC#Cc1ccc2nn(CC[C@](C)(C(=O)NO)S(C)(=O)=O)cc2c1` [Example 82, (R)-4-(5-(6-amino-6-methylhepta-1,3-diyn-1-yl)-2H-indazol-2-yl)-N-hydroxy-2-methyl-2-(methylsulfonyl)butanamide]: the MIC in assay [1] was over 32 µg/mL; with E. coli ATCC25922, 4 µg/mL (≈ 9.29 µM); in the assay on K. pneumoniae A-651, 8 µg/mL (≈ 18.6 µM); with P. aeruginosa ATCC27853, 4 µg/mL (≈ 9.29 µM).

As to `C[C@@](CCn1cc2cc(C#CC#CC3CCN(C(=O)CN)CC3)ccc2n1)(C(=O)NO)S(C)(=O)=O.O=CO` [Example 83, (R)-4-(5-((1-glycylpiperidin-4-yl)buta-1,3-diyn-1-yl)-2H-indazol-2-yl)-N-hydroxy-2-methyl-2-(methylsulfonyl)butanamide formate], the MIC was found to be 32 µg/mL in assay [1], 2 µg/mL with E. coli ATCC25922, 8 µg/mL in the assay on K. pneumoniae A-651 and 4 µg/mL in the assay with P. aeruginosa ATCC27853.

As for `C[C@@](CCn1cc2cc(C#CC#CC3CN(C(=O)CN)C3)ccc2n1)(C(=O)NO)S(C)(=O)=O` [Example 84, (R)-4-(5-((1-glycylazetidin-3-yl)buta-1,3-diyn-1-yl)-2H-indazol-2-yl)-N-hydroxy-2-methyl-2-(methylsulfonyl)butanamide], the MIC in assay [1] is over 32 µg/mL; in the assay on E. coli ATCC25922, 1 µg/mL (≈ 2.12 µM); in the assay with K. pneumoniae A-651, 4 µg/mL (≈ 8.48 µM); with P. aeruginosa ATCC27853, 0.5 µg/mL (≈ 1.06 µM).

With `CC(C)(N)C(=O)N1CC(C#CC#Cc2ccc3nn(CC[C@](C)(C(=O)NO)S(C)(=O)=O)cc3c2)C1` [Example 85, (R)-4-(5-((1-(2-amino-2-methylpropanoyl)azetidin-3-yl)buta-1,3-diyn-1-yl)-2H-indazol-2-yl)-N-hydroxy-2-methyl-2-(methylsulfonyl)butanamide], the MIC is over 32 µg/mL in assay [1], 4 µg/mL (≈ 8.01 µM) in the assay with E. coli ATCC25922, 8 µg/mL (≈ 16 µM) with K. pneumoniae A-651 and 2 µg/mL (≈ 4 µM) in the assay on P. aeruginosa ATCC27853.

“(R)-4-(5-(5-amino-5-methylhexa-1,3-diyn-1-yl)-2H-indazol-2-yl)-N-hydroxy-2-methyl-2-(methylsulfonyl)butanamide [Example 24]”: the “MIC for A. Baumannii T6474” value in assay [1] was over 32 µg/mL. For the same compound, the “MIC for E. coli ATCC25922” value against E. coli ATCC25922 worked out at 0.5 µg/mL. Also, in the assay with K. pneumoniae A-651, the “MIC for K. Pneumoniae A-651” value came to 1 µg/mL. In the assay on P. aeruginosa ATCC27853, the “MIC for P. aeruginosa ATCC27853” value was found to be 0.5 µg/mL.
